Results taken from patent US8686044B2, “Amide derivative, pest control agent containing the amide derivative, and use of the amide derivative” (Mitsui Chemicals Agro, Inc., priority 2008, dated 2014).
Like-named read-outs stand apart in the source and are kept apart here.

How the values were obtained:
Format in all cases: in vivo
Musca domestica = test: Pesticidal test against Musca domestica (petri dish dry film); settings: 24 h, concentration 100 ppm, female adults, examined after 1 day, 25° C., read-out: pesticidal rate
Experimental: Pesticidal Test against Musca domestica
1 ml of an acetone solution in which a test compound had been prepared at a predetermined concentration was added dropwise to a petri dish having a diameter of 9 cm, and air-dried, and then the female adults of Musca domestica were released and the petri dish was capped. They were left to stand in a thermostatic chamber at 25° C., and the numbers of the living pests and the dead pests were examined after 1 day. The test was carried out with five larvae per group in two replicates.

Helicoverpa armigera = test: Pesticidal test against Helicoverpa armigera (cabbage leaf disk dip); settings: foliar, 72 h, concentration 1 ppm, 2-stage larvae, examined after 3 days, 25° C., read-out: pesticidal rate
Experimental: Pesticidal Test against Helicoverpa armigera A cabbage leaf disk was immersed for 30 seconds in a chemical solution in which a test compound had been prepared at a predetermined concentration, and air-dried. The leaf disk was put into a 6-hole plastic cup having a filter paper laid on the bottom thereof, and 2-stage larvae of Helicoverpa armigera were released with one insect being released per hole. They were left to stand in a thermostatic chamber at 25° C., and the numbers of the living pests and the dead pests were examined after 3 days. The test was carried out with five larvae per group in two replicates. Further, the above compound (A) was used as a comparative compound.

Plutella xylostella = test: Pesticidal test against Plutella xylostella (cabbage leaf dip); settings: foliar, 144 h, concentration 1 ppm, 2-stage larvae, examined after 6 days, 25° C., read-out: pesticidal rate
Summary of the method: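 Cabbage leaf pieces dipped 30 s in test solution at a predetermined concentration, air-dried, then offered to 2nd-instar larvae, five per group in duplicate. Held at 25° C; living and dead larvae counted after 6 days.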

Adoxophyes honmai = test: Pesticidal test against Adoxophyes honmai (artificial feed dip); settings: 144 h, 2-stage larvae, examined after 6 days, 25° C., read-out: pesticidal rate; for pest or weed control at 1 ppm: concentration 1 ppm
Experimental: (§1) Pesticidal Test against Adoxophyes honmai A thinly sliced artificial feed was immersed for 30 seconds in a chemical solution in which a test compound had been prepared at a predetermined concentration, and air-dried, and then put into a 7 cm polyethylene cup having a filter paper laid on the bottom thereof, and 2-stage larvae of Adoxophyes honmai were released. They were left to stand in a thermostatic chamber at 25° C., and the numbers of the living pests and the dead pests were examined after 6 days. The test was carried out with five larvae per group in two replicates. Further, the above compound (A) was used as a comparative compound.

Spodoptera litura = test: Pesticidal test against Spodoptera litura (cabbage leaf dip); settings: foliar, 144 h, concentration 1 ppm, 2-stage larvae, examined after 6 days, 25° C., read-out: pesticidal rate
Summary of the method: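 Cabbage leaf pieces dipped 30 seconds in compound solution at a predetermined concentration and air-dried, then offered to second-stage larvae, five per group in two replicates. Held at 25° C. Living and dead larvae counted after 6 days.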

Laodelphax striatellus = test: Pesticidal test against Laodelphax striatellus (rice seedling spray); settings: 144 h, read-out: pesticidal rate
Summary of the method: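 Rice seedlings sprayed with 2.5 ml acetone solution of compound at a predetermined concentration, air-dried, then infested with third-stage Laodelphax striatellus larvae in capped water-containing tubes at 25 °C. Living and dead insects counted after 6 days; ten larvae per group, two replicates.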

Choristoneura magnanima = test: Pesticidal test against Choristoneura magnanima (artificial feed dip); settings: 144 h, 2-stage larvae, examined after 6 days, 25° C., read-out: pesticidal rate; for pest or weed control at 1 ppm: concentration 1 ppm
Experimental: as §1, with “Choristoneura magnanima” for “Adoxophyes honmai”

[1] = concentration 100 ppm, 3-stage larvae, examined after 6 days, 25° C.

O=C(Nc1cccc(C(=O)Nc2c(Br)cc(C(F)(C(F)(F)F)C(F)(F)C(F)(F)F)cc2C(F)(F)F)c1)c1cccc(F)c1 (stereo not drawn) [6-348]
≥ 70%: pest or weed control at 100 ppm (Musca domestica) | pest or weed control at 1 ppm (Helicoverpa armigera) | pest or weed control at 1 ppm (Plutella xylostella) | pest or weed control at 1 ppm (Adoxophyes honmai) | pest or weed control at 1 ppm (Spodoptera litura)

O=C(Nc1c(I)cc(C(F)(C(F)(F)F)C(F)(F)F)cc1C(F)(F)F)c1cccc(NC(=O)c2ccc(F)cc2Cl)c1 [6-449]
≥ 70%: pest or weed control at 1 ppm (Helicoverpa armigera) | pest or weed control at 1 ppm (Plutella xylostella) | pest or weed control at 1 ppm (Adoxophyes honmai) | pest or weed control at 1 ppm (Spodoptera litura)

O=C(Nc1cccc(C(=O)Nc2c(I)cc(C(F)(C(F)(F)F)C(F)(F)C(F)(F)F)cc2C(F)(F)F)c1)c1cccc(F)c1 (stereo not drawn) [6-504]
≥ 70%: pest or weed control at 100 ppm (Musca domestica) | pest or weed control at 1 ppm (Helicoverpa armigera) | pest or weed control at 1 ppm (Plutella xylostella) | pest or weed control at 1 ppm (Adoxophyes honmai) | pest or weed control at 1 ppm (Spodoptera litura)

O=C(Nc1cccc(C(=O)Nc2c(I)cc(C(F)(C(F)(F)F)C(F)(F)C(F)(F)F)cc2C(F)(F)F)c1)c1ccc(F)cc1 (stereo not drawn) [6-505]
≥ 70%: pest or weed control at 100 ppm (Musca domestica) | pest or weed control at 1 ppm (Helicoverpa armigera) | pest or weed control at 1 ppm (Plutella xylostella) | pest or weed control at 1 ppm (Adoxophyes honmai) | pest or weed control at 1 ppm (Spodoptera litura)

N#Cc1cccc(C(=O)Nc2cccc(C(=O)Nc3c(I)cc(C(F)(C(F)(F)F)C(F)(F)C(F)(F)F)cc3C(F)(F)F)c2)c1 (stereo not drawn) [6-522]
≥ 70%: pest or weed control at 100 ppm (Musca domestica) | pest or weed control at 1 ppm (Helicoverpa armigera) | pest or weed control at 1 ppm (Plutella xylostella) | pest or weed control at 1 ppm (Adoxophyes honmai) | pest or weed control at 1 ppm (Spodoptera litura)

N#Cc1ccc(C(=O)Nc2cccc(C(=O)Nc3c(I)cc(C(F)(C(F)(F)F)C(F)(F)C(F)(F)F)cc3C(F)(F)F)c2)cc1 (stereo not drawn) [6-523]
≥ 70%: pest or weed control at 100 ppm (Musca domestica) | pest or weed control at 1 ppm (Helicoverpa armigera) | pest or weed control at 1 ppm (Plutella xylostella) | pest or weed control at 10 ppm (Adoxophyes honmai; concentration 10 ppm) | pest or weed control at 1 ppm (Spodoptera litura)

O=C(Nc1c(I)cc(C(F)(C(F)(F)F)C(F)(F)C(F)(F)F)cc1C(F)(F)F)c1cccc(NC(=O)c2c(F)cccc2F)c1 (stereo not drawn) [6-524]
≥ 70%: pest or weed control at 100 ppm (Musca domestica) | pest or weed control at 1 ppm (Helicoverpa armigera) | pest or weed control at 1 ppm (Plutella xylostella) | pest or weed control at 1 ppm (Adoxophyes honmai) | pest or weed control at 1 ppm (Spodoptera litura)

N#Cc1cccc(C(=O)Nc2cccc(C(=O)Nc3c(Br)cc(C(F)(C(F)(F)F)C(F)(F)C(F)(F)F)cc3Br)c2F)c1 (stereo not drawn) [6-1202]
≥ 70%: pest or weed control at 100 ppm (Laodelphax striatellus; [1]) | pest or weed control at 1 ppm (Plutella xylostella) | pest or weed control at 1 ppm (Adoxophyes honmai) | pest or weed control at 1 ppm (Spodoptera litura)

O=C(Nc1cccc(C(=O)Nc2c(I)cc(C(F)(C(F)(F)F)C(F)(F)F)cc2I)c1F)c1cccc(F)c1 [6-1262]
≥ 70%: pest or weed control at 100 ppm (Laodelphax striatellus; [1]) | pest or weed control at 1 ppm (Helicoverpa armigera) | pest or weed control at 1 ppm (Plutella xylostella) | pest or weed control at 1 ppm (Adoxophyes honmai) | pest or weed control at 1 ppm (Spodoptera litura)

N#Cc1ccc(C(=O)Nc2cccc(C(=O)Nc3c(I)cc(C(F)(C(F)(F)F)C(F)(F)F)cc3I)c2F)cc1 [6-1281]
≥ 70%: pest or weed control at 100 ppm (Laodelphax striatellus; [1]) | pest or weed control at 100 ppm (Musca domestica) | pest or weed control at 1 ppm (Helicoverpa armigera) | pest or weed control at 1 ppm (Plutella xylostella) | pest or weed control at 1 ppm (Spodoptera litura)

O=C(Nc1cccc(C(=O)Nc2c(I)cc(C(F)(C(F)(F)F)C(F)(F)C(F)(F)F)cc2I)c1F)c1ccc(F)cc1 (stereo not drawn) [6-1341]
≥ 70%: pest or weed control at 100 ppm (Laodelphax striatellus; [1]) | pest or weed control at 100 ppm (Musca domestica) | pest or weed control at 1 ppm (Helicoverpa armigera) | pest or weed control at 1 ppm (Plutella xylostella) | pest or weed control at 1 ppm (Adoxophyes honmai) | pest or weed control at 1 ppm (Spodoptera litura)

O=C(Nc1cccc(C(=O)Nc2c(Br)cc(C(F)(C(F)(F)F)C(F)(F)C(F)(F)F)cc2C(F)(F)F)c1F)c1cccnc1Cl (stereo not drawn) [6-1688]
≥ 70%: pest or weed control at 100 ppm (Laodelphax striatellus; [1]) | pest or weed control at 1 ppm (Plutella xylostella) | pest or weed control at 1 ppm (Adoxophyes honmai) | pest or weed control at 1 ppm (Spodoptera litura)

O=C(Nc1cccc(C(=O)Nc2c(I)cc(C(F)(C(F)(F)F)C(F)(F)C(F)(F)F)cc2C(F)(F)F)c1F)c1ccccc1 (stereo not drawn) [6-1808]
≥ 70%: pest or weed control at 100 ppm (Laodelphax striatellus; [1]) | pest or weed control at 100 ppm (Musca domestica) | pest or weed control at 1 ppm (Helicoverpa armigera) | pest or weed control at 1 ppm (Plutella xylostella) | pest or weed control at 1 ppm (Spodoptera litura)

CN(C(=O)c1cccc(F)c1)c1cccc(C(=O)Nc2c(I)cc(C(F)(C(F)(F)F)C(F)(F)C(F)(F)F)cc2C(F)(F)F)c1 (stereo not drawn) [7-504]
≥ 70%: pest or weed control at 100 ppm (Musca domestica) | pest or weed control at 1 ppm (Plutella xylostella) | pest or weed control at 1 ppm (Choristoneura magnanima) | pest or weed control at 1 ppm (Spodoptera litura)

CN(C(=O)c1cccc(C#N)c1)c1cccc(C(=O)Nc2c(I)cc(C(F)(C(F)(F)F)C(F)(F)C(F)(F)F)cc2C(F)(F)F)c1 (stereo not drawn) [7-522]
≥ 70%: pest or weed control at 100 ppm (Musca domestica) | pest or weed control at 1 ppm (Helicoverpa armigera) | pest or weed control at 1 ppm (Plutella xylostella) | pest or weed control at 1 ppm (Adoxophyes honmai) | pest or weed control at 1 ppm (Spodoptera litura)

CN(C(=O)c1cccc(C#N)c1)c1cccc(C(=O)Nc2c(Br)cc(C(F)(C(F)(F)F)C(F)(F)C(F)(F)F)cc2Br)c1F (stereo not drawn) [7-1202]
≥ 70%: pest or weed control at 100 ppm (Laodelphax striatellus; [1]) | pest or weed control at 1 ppm (Plutella xylostella) | pest or weed control at 1 ppm (Adoxophyes honmai) | pest or weed control at 1 ppm (Spodoptera litura)

CN(C(=O)c1ccc(C#N)cc1)c1cccc(C(=O)Nc2c(I)cc(C(F)(C(F)(F)F)C(F)(F)F)cc2I)c1F [7-1281]
≥ 70%: pest or weed control at 100 ppm (Laodelphax striatellus; [1]) | pest or weed control at 1 ppm (Plutella xylostella) | pest or weed control at 1 ppm (Choristoneura magnanima) | pest or weed control at 1 ppm (Spodoptera litura)

CN(C(=O)c1ccccc1)c1cccc(C(=O)Nc2c(I)cc(C(F)(C(F)(F)F)C(F)(F)C(F)(F)F)cc2I)c1F (stereo not drawn) [7-1338]
≥ 70%: pest or weed control at 100 ppm (Laodelphax striatellus; [1]) | pest or weed control at 100 ppm (Musca domestica) | pest or weed control at 1 ppm (Helicoverpa armigera) | pest or weed control at 1 ppm (Plutella xylostella) | pest or weed control at 1 ppm (Adoxophyes honmai) | pest or weed control at 1 ppm (Spodoptera litura)

CN(C(=O)c1ccc(C#N)cc1F)c1cccc(C(=O)Nc2c(Br)cc(C(F)(C(F)(F)F)C(F)(F)F)cc2C(F)(F)F)c1F [7-1606]
≥ 70%: pest or weed control at 100 ppm (Laodelphax striatellus; [1]) | pest or weed control at 1 ppm (Helicoverpa armigera) | pest or weed control at 1 ppm (Plutella xylostella) | pest or weed control at 10 ppm (Choristoneura magnanima; concentration 10 ppm) | pest or weed control at 1 ppm (Spodoptera litura)

CN(C(=O)c1ccc(C#N)cc1)c1cccc(C(=O)Nc2c(I)cc(C(F)(C(F)(F)F)C(F)(F)F)cc2C(F)(F)F)c1F [7-1751]
≥ 70%: pest or weed control at 100 ppm (Laodelphax striatellus; [1]) | pest or weed control at 1 ppm (Helicoverpa armigera) | pest or weed control at 1 ppm (Plutella xylostella) | pest or weed control at 1 ppm (Spodoptera litura)

CN(C(=O)c1ccccc1)c1cccc(C(=O)N(C)c2c(Br)cc(C(F)(C(F)(F)F)C(F)(F)F)cc2C(F)(F)F)c1F [9-2164, N-(2-bromo-4-(perfluoropropan-2-yl)-6-(trifluoromethyl)phenyl)-2-fluoro-N-methyl-3-(N-methylbenzamide)benzamide]
≥ 70%: pest or weed control at 100 ppm (Laodelphax striatellus; [1]) | pest or weed control at 100 ppm (Musca domestica) | pest or weed control at 1 ppm (Plutella xylostella) | pest or weed control at 1 ppm (Spodoptera litura)

CN(C(=O)c1cccc(F)c1)c1cccc(C(=O)N(C)c2c(I)cc(C(F)(C(F)(F)F)C(F)(F)F)cc2C(F)(F)F)c1F [9-2322]
≥ 70%: pest or weed control at 100 ppm (Laodelphax striatellus; [1]) | pest or weed control at 100 ppm (Musca domestica) | pest or weed control at 1 ppm (Plutella xylostella) | pest or weed control at 1 ppm (Spodoptera litura)

CN(C(=O)OCC(Cl)(Cl)Cl)c1cccc(C(=O)Nc2c(I)cc(C(F)(C(F)(F)F)C(F)(F)F)cc2C(F)(F)F)c1F [12-835]
≥ 70%: pest or weed control at 100 ppm (Laodelphax striatellus) | pest or weed control at 100 ppm (Musca domestica) | pest or weed control at 1 ppm (Plutella xylostella) | pest or weed control at 1 ppm (Spodoptera litura)

CN(C(=O)OCC(Cl)(Cl)Cl)c1cccc(C(=O)Nc2c(I)cc(C(F)(C(F)(F)F)C(F)(F)C(F)(F)F)cc2C(F)(F)F)c1F (stereo not drawn) [12-864, 2,2,2-trichloroethyl 2-fluoro-3-(2-iodo-4-(perfluorobutan-2-yl)-6-(trifluoromethyl)phenylcarbamoyl)phenyl(methyl)carbamate]
≥ 70%: pest or weed control at 100 ppm (Laodelphax striatellus) | pest or weed control at 100 ppm (Musca domestica) | pest or weed control at 1 ppm (Plutella xylostella) | pest or weed control at 1 ppm (Spodoptera litura)
